Our source for the IC50 values is patent US20260297081A1, “COMPOUNDS AND METHODS OF TREATING CANCERS” (Cullgen Inc., priority 2023, published 2026).

The test system of the test is MCF7 cells. In words: Anti-proliferation (viability) of MCF7 cells (Table 7, FIG. 2B). Type of test: cell-based. To be noted: Homo sapiens, MCF7, MCF7 cells, 3-6 days, 10-point serial dilution; read-out: GI IC50 in MCF-7.

Bounds are passed on as bounds.

Usually IC50 stands for the point on the concentration scale where inhibition reaches its midpoint. As to `CC(=O)c1c(C)c2cnc(Nc3ccc(CC4CCN(CC(=O)N5CCC(Nc6nc(NC(C)C)ccc6C(=O)Nc6ccc(N(C)C)nn6)CC5)CC4)cn3)nc2n(C2CCCC2)c1=O` [CPD-386, 2-((1-(2-(4-((6-((6-acetyl-8-cyclopentyl-5-methyl-7-oxo-7,8-dihydropyrido[2,3-d]pyrimidin-2-yl)amino)pyridin-3-yl)methyl)piperidin-1-yl)acetyl)piperidin-4-yl)amino)-N-(6-(dimethylamino)pyridazin-3-yl)-6-(isopropylamino)nicotinamide], the IC50 is greater than 0.1 µM.

In the case of `CC(=O)c1c(C)c2cnc(Nc3ccc(N4CCN(CC(=O)NCC5CC(Nc6cc(C(F)(F)F)ccc6C(=O)Nc6cc(C)n(C)n6)C5)CC4)cn3)nc2n(C2CCCC2)c1=O` (centres unmarked) [CPD-261, 2-((3-((2-(4-(6-((6-acetyl-8-cyclopentyl-5-methyl-7-oxo-7,8-dihydropyrido[2,3-d]pyrimidin-2-yl)amino)pyridin-3-yl)piperazin-1-yl)acetamido)methyl)cyclobutyl)amino)-N-(1,5-dimethyl-1H-pyrazol-3-yl)-4-(trifluoromethyl)benzamide], the IC50 was greater than 0.1 µM.

As to `CC(=O)c1c(C)c2cnc(Nc3ccc(N4CCC(N5CCC(C(=O)N6CC(Nc7nc(NC(C)C)ccc7C(=O)Nc7ccc(N(C)C)nn7)C6)C5)CC4)cn3)nc2n(C2CCCC2)c1=O` (centres unmarked) [CPD-394, 2-((1-(1-(1-(6-((6-acetyl-8-cyclopentyl-5-methyl-7-oxo-7,8-dihydropyrido[2,3-d]pyrimidin-2-yl)amino)pyridin-3-yl)piperidin-4-yl)pyrrolidine-3-carbonyl)azetidin-3-yl)amino)-N-(6-(dimethylamino)pyridazin-3-yl)-6-(isopropylamino)nicotinamide], the IC50 is greater than 0.1 µM.

As to `CC(=O)c1c(C)c2cnc(Nc3ccc(N4CCC(NCC(=O)N5CCC(Nc6nc(NC(C)C)ccc6C(=O)Nc6ccc(N(C)C)nn6)C5)CC4)cn3)nc2n(C2CCCC2)c1=O` (centres unmarked) [CPD-372, 2-((1-((1-(6-((6-acetyl-8-cyclopentyl-5-methyl-7-oxo-7,8-dihydropyrido[2,3-d]pyrimidin-2-yl)amino)pyridin-3-yl)piperidin-4-yl)glycyl)pyrrolidin-3-yl)amino)-N-(6-(dimethylamino)pyridazin-3-yl)-6-(isopropylamino)nicotinamide], the IC50 is greater than 0.1 µM.

As for `CC(=O)c1c(C)c2cnc(Nc3ccc(N4CCC5(CC4)CC5C(=O)N4CCC(Nc5nc(NC(C)C)ccc5C(=O)Nc5cc(C)on5)CC4)cn3)nc2n(C2CCCC2)c1=O` (centres unmarked) [CPD-419, 2-((1-(6-(6-((6-acetyl-8-cyclopentyl-5-methyl-7-oxo-7,8-dihydropyrido[2,3-d]pyrimidin-2-yl)amino)pyridin-3-yl)-6-azaspiro[2.5]octane-1-carbonyl)piperidin-4-yl)amino)-6-(isopropylamino)-N-(5-methylisoxazol-3-yl)nicotinamide], the IC50 was less than 0.05 µM.

Turning to `CC(=O)c1c(C)c2cnc(N(C)c3ccc(N4CCN(CCC(=O)N5CC6(CC(Nc7nc(NC(C)C)ccc7C(=O)Nc7cc(C)n(C)n7)C6)C5)CC4)cn3)nc2n(C2CCCC2)c1=O` [CPD-404, 2-((2-(3-(4-(6-((6-acetyl-8-cyclopentyl-5-methyl-7-oxo-7,8-dihydropyrido[2,3-d]pyrimidin-2-yl)(methyl)amino)pyridin-3-yl)piperazin-1-yl)propanoyl)-2-azaspiro[3.3]heptan-6-yl)amino)-N-(1,5-dimethyl-1H-pyrazol-3-yl)-6-(isopropylamino)nicotinamide], the IC50 is greater than 0.1 µM.

In the case of `CCn1nc(NC(=O)c2ccc(NC)nc2NC2CC3(CC(NC(=O)CN4CCN(c5ccc(Nc6ncc7c(C)c(C(C)=O)c(=O)n(C8CCCC8)c7n6)nc5)CC4)C3)C2)cc1C` (centres unmarked) [CPD-312, 2-((6-(2-(4-(6-((6-acetyl-8-cyclopentyl-5-methyl-7-oxo-7,8-dihydropyrido[2,3-d]pyrimidin-2-yl)amino)pyridin-3-yl)piperazin-1-yl)acetamido)spiro[3.3]heptan-2-yl)amino)-N-(1-ethyl-5-methyl-1H-pyrazol-3-yl)-6-(methylamino)nicotinamide], the IC50 is greater than 0.1 µM.

As to `CNc1ccc(C(=O)Nc2cn(C)c(C3CCCC3)n2)c(NC2CC3(CC(NC(=O)CN4CCN(c5ccc(Nc6ncc7c(C)c(C(C)=O)c(=O)n(C8CCCC8)c7n6)nc5)CC4)C3)C2)n1` (centres unmarked) [CPD-296, 2-((6-(2-(4-(6-((6-acetyl-8-cyclopentyl-5-methyl-7-oxo-7,8-dihydropyrido[2,3-d]pyrimidin-2-yl)amino)pyridin-3-yl)piperazin-1-yl)acetamido)spiro[3.3]heptan-2-yl)amino)-N-(2-cyclopentyl-1-methyl-1H-imidazol-4-yl)-6-(methylamino)nicotinamide], the IC50 was greater than 0.1 µM.

Take `CC(=O)c1c(C)c2cnc(Nc3ccc(N4CCC(N5CCC(C(=O)N6CCC(Nc7nc(NC(C)C)ccc7C(=O)Nc7ccc(N(C)C)nn7)C6)C5)CC4)cn3)nc2n(C2CCCC2)c1=O` (centres unmarked) [CPD-395, 2-((1-(1-(1-(6-((6-acetyl-8-cyclopentyl-5-methyl-7-oxo-7,8-dihydropyrido[2,3-d]pyrimidin-2-yl)amino)pyridin-3-yl)piperidin-4-yl)pyrrolidine-3-carbonyl)pyrrolidin-3-yl)amino)-N-(6-(dimethylamino)pyridazin-3-yl)-6-(isopropylamino)nicotinamide]: the IC50 is greater than 0.1 µM.

With `[2H]C([2H])([2H])Nc1ccc(C(=O)Nc2cn(C)c(C3CC3)n2)c(NC2CC(NC(=O)CN3CCN(c4ccc(Nc5ncc6c(C)c(C(C)=O)c(=O)n(C7CCCC7)c6n5)nc4)CC3)C2)n1` (centres unmarked) [CPD-307, 2-((3-(2-(4-(6-((6-acetyl-8-cyclopentyl-5-methyl-7-oxo-7,8-dihydropyrido[2,3-d]pyrimidin-2-yl)amino)pyridin-3-yl)piperazin-1-yl)acetamido)cyclobutyl)amino)-N-(2-cyclopropyl-1-methyl-1H-imidazol-4-yl)-6-((methyl-d3)amino)nicotinamide], the IC50 was greater than 0.1 µM.

For `CC(=O)c1c(C)c2cnc(Nc3ccc(N4CCN(C5(C(=O)NC6CC7(C6)CC(Nc6nc(NC(C)C)ccc6C(=O)Nc6cc(C)on6)C7)CC5)CC4)cn3)nc2n(C2CCCC2)c1=O` (centres unmarked) [CPD-371, 2-((6-(1-(4-(6-((6-acetyl-8-cyclopentyl-5-methyl-7-oxo-7,8-dihydropyrido[2,3-d]pyrimidin-2-yl)amino)pyridin-3-yl)piperazin-1-yl)cyclopropane-1-carboxamido)spiro[3.3]heptan-2-yl)amino)-6-(isopropylamino)-N-(5-methylisoxazol-3-yl)nicotinamide], the IC50 is greater than 0.1 µM.

With `CNc1ccc(C(=O)Nc2ccc(N(C)C)nn2)c(NC2CC(C(=O)NC3CCC4(CCN(c5ccc(Nc6ncc7c(C)c(C(C)=O)c(=O)n(C8CCCC8)c7n6)nc5)CC4)C3)C2)n1` (centres unmarked) [CPD-428, 2-((3-((8-(6-((6-acetyl-8-cyclopentyl-5-methyl-7-oxo-7,8-dihydropyrido[2,3-d]pyrimidin-2-yl)amino)pyridin-3-yl)-8-azaspiro[4.5]decan-2-yl)carbamoyl)cyclobutyl)amino)-N-(6-(dimethylamino)pyridazin-3-yl)-6-(methylamino)nicotinamide], the IC50 is greater than 0.1 µM.

`CNc1ccc(C(=O)Nc2cn(C)c(C3CC3)n2)c(NC2CC3(C2)CN(C(=O)C2CC4(CCN(c5ccc(Nc6ncc7c(C)c(C(C)=O)c(=O)n(C8CCCC8)c7n6)nc5)CC4)C2)C3)n1` (centres unmarked) [CPD-321, 2-((2-(7-(6-((6-acetyl-8-cyclopentyl-5-methyl-7-oxo-7,8-dihydropyrido[2,3-d]pyrimidin-2-yl)amino)pyridin-3-yl)-7-azaspiro[3.5]nonane-2-carbonyl)-2-azaspiro[3.3]heptan-6-yl)amino)-N-(2-cyclopropyl-1-methyl-1H-imidazol-4-yl)-6-(methylamino)nicotinamide]: the IC50 was greater than 0.1 µM.

Turning to `CC(=O)c1c(C)c2cnc(Nc3ccc(N4CC5(CN(CC(=O)N6CCC(Nc7nc(NC(C)C)ccc7C(=O)Nc7ccc(N(C)C)nn7)C6)C5)C4)cn3)nc2n(C2CCCC2)c1=O` (centres unmarked) [CPD-424, 2-((1-(2-(6-(6-((6-acetyl-8-cyclopentyl-5-methyl-7-oxo-7,8-dihydropyrido[2,3-d]pyrimidin-2-yl)amino)pyridin-3-yl)-2,6-diazaspiro[3.3]heptan-2-yl)acetyl)pyrrolidin-3-yl)amino)-N-(6-(dimethylamino)pyridazin-3-yl)-6-(isopropylamino)nicotinamide], the IC50 was greater than 0.1 µM.

Turning to `CC(=O)c1c(C)c2cnc(Nc3ccc(N4CCC(N5CCC(C(=O)N6CC7(CC(Nc8nc(NC(C)C)ccc8C(=O)Nc8ccc(N(C)C)nn8)C7)C6)C5)CC4)cn3)nc2n(C2CCCC2)c1=O` (centres unmarked) [CPD-398, 2-((2-(1-(1-(6-((6-acetyl-8-cyclopentyl-5-methyl-7-oxo-7,8-dihydropyrido[2,3-d]pyrimidin-2-yl)amino)pyridin-3-yl)piperidin-4-yl)pyrrolidine-3-carbonyl)-2-azaspiro[3.3]heptan-6-yl)amino)-N-(6-(dimethylamino)pyridazin-3-yl)-6-(isopropylamino)nicotinamide], the IC50 was 0.05 to 0.1 µM.

For `CC(=O)c1c(C)c2cnc(Nc3ccc(N4CCN(C5CCN(C(=O)C6CC7(CC(Nc8nc(NC(C)C)ccc8C(=O)Nc8ccc(N(C)C)nn8)C7)C6)C5)CC4)cn3)nc2n(C2CCCC2)c1=O` (centres unmarked) [CPD-400, 2-((6-(3-(4-(6-((6-acetyl-8-cyclopentyl-5-methyl-7-oxo-7,8-dihydropyrido[2,3-d]pyrimidin-2-yl)amino)pyridin-3-yl)piperazin-1-yl)pyrrolidine-1-carbonyl)spiro[3.3]heptan-2-yl)amino)-N-(6-(dimethylamino)pyridazin-3-yl)-6-(isopropylamino)nicotinamide], the IC50 lay within 0.05 to 0.1 µM.

Turning to `CC(=O)c1c(C)c2cnc(Nc3ccc(N4CCN(CC(=O)NC5CC6(C5)CC(Nc5nc(C(C)(C)O)ccc5C(=O)Nc5cn(C)c(C7CC7)n5)C6)CC4)cn3)nc2n(C2CCCC2)c1=O` (centres unmarked) [CPD-352, 2-((6-(2-(4-(6-((6-acetyl-8-cyclopentyl-5-methyl-7-oxo-7,8-dihydropyrido[2,3-d]pyrimidin-2-yl)amino)pyridin-3-yl)piperazin-1-yl)acetamido)spiro[3.3]heptan-2-yl)amino)-N-(2-cyclopropyl-1-methyl-1H-imidazol-4-yl)-6-(2-hydroxypropan-2-yl)nicotinamide], the IC50 is greater than 0.1 µM.
